Like-named read-outs stand apart in the source and are kept apart here.
Assays:
[1] = not given; remark: listed apart in the source

Mole fraction solubility (neat DES betaine-DEG 1:1, 25°C): 0.223±0.0026 mole fraction
Mole fraction solubility (neat DES betaine-GLY 1:2, 25°C, listed as IP): 0.297 mole fraction
Mole fraction solubility (neat DES betaine-P2D 1:1, 25°C): 0.1561±0.0027 mole fraction
Mole fraction solubility (neat DES betaine-P2D 1:2, 25°C): 0.1919±0.0023 mole fraction
Mole fraction solubility (neat DES betaine-P2D 1:4, 25°C): 0.2062±0.0014 mole fraction
Mole fraction solubility (neat DES betaine-TEG 1:2, 25°C, listed as IP): 0.321 mole fraction
Mole fraction solubility (neat DES choline chloride-B3D 1:1, 25°C): 0.1584±0.0030 mole fraction
Mole fraction solubility (neat DES choline chloride-B3D 1:4, 25°C): 0.1899±0.0025 mole fraction
Mole fraction solubility (neat DES choline chloride-ETG 1:1, 25°C): 0.2167±0.0034 mole fraction
Mole fraction solubility (neat DES choline chloride-ETG 1:2, 25°C): 0.3072±0.0025 mole fraction
Mole fraction solubility (neat DES choline chloride-ETG 1:4, 25°C): 0.2905±0.0061 mole fraction
Mole fraction solubility (neat DES choline chloride-GLY 1:1, 25°C): 0.2793±0.0019 mole fraction
Mole fraction solubility (neat DES choline chloride-GLY 1:2, 25°C): 0.3495±0.0031 mole fraction
Mole fraction solubility (neat DES choline chloride-GLY 1:2, 25°C, listed as IP): 0.349 mole fraction
Mole fraction solubility (neat DES choline chloride-GLY 1:4, 25°C): 0.3187±0.0038 mole fraction
Mole fraction solubility (neat DES choline chloride-P2D 1:1, 25°C): 0.1611±0.0024 mole fraction
Mole fraction solubility (neat DES choline chloride-P2D 1:2, 25°C): 0.2068±0.0046 mole fraction
Mole fraction solubility (neat DES choline chloride-TEG 1:2, 25°C, listed as IP): 0.353 mole fraction
Mole fraction solubility ([1]; DES betaine + TEG 1:2, x*DES 1.0, 25°C): 0.3209±0.0024 mole fraction
Mole fraction solubility ([1]; DES betaine + TEG 1:2, x*DES 1.0, 30°C): 0.3830±0.0062 mole fraction
Mole fraction solubility ([1]; DES betaine + TEG 1:2, x*DES 1.0, 35°C): 0.4548±0.0069 mole fraction
Mole fraction solubility ([1]; DES betaine + TEG 1:2, x*DES 1.0, 40°C): 0.5444±0.0067 mole fraction
Mole fraction solubility ([1]; DES choline chloride + TEG 1:2, x*DES 1.0, 25°C): 0.3528±0.0029 mole fraction
Mole fraction solubility ([1]; DES choline chloride + TEG 1:2, x*DES 1.0, 30°C): 0.4366±0.0077 mole fraction
Mole fraction solubility ([1]; DES choline chloride + TEG 1:2, x*DES 1.0, 35°C): 0.5483±0.0115 mole fraction
Mole fraction solubility ([1]; DES choline chloride + TEG 1:2, x*DES 1.0, 40°C): 0.6784±0.0040 mole fraction
Mole fraction solubility ([1]; aqueous DES betaine + TEG 1:2, x*DES 0.1, 25°C): 0.0396±0.0003 mole fraction
Mole fraction solubility ([1]; aqueous DES betaine + TEG 1:2, x*DES 0.1, 30°C): 0.0475±0.0007 mole fraction
Mole fraction solubility ([1]; aqueous DES betaine + TEG 1:2, x*DES 0.1, 35°C): 0.0561±0.0003 mole fraction
Mole fraction solubility ([1]; aqueous DES betaine + TEG 1:2, x*DES 0.1, 40°C): 0.0688±0.0013 mole fraction
Mole fraction solubility ([1]; aqueous DES betaine + TEG 1:2, x*DES 0.2, 25°C): 0.0911±0.0020 mole fraction
Mole fraction solubility ([1]; aqueous DES betaine + TEG 1:2, x*DES 0.2, 30°C): 0.1077±0.0009 mole fraction
Mole fraction solubility ([1]; aqueous DES betaine + TEG 1:2, x*DES 0.2, 35°C): 0.1301±0.0019 mole fraction
Mole fraction solubility ([1]; aqueous DES betaine + TEG 1:2, x*DES 0.2, 40°C): 0.1547±0.0024 mole fraction
Mole fraction solubility ([1]; aqueous DES betaine + TEG 1:2, x*DES 0.3, 25°C): 0.1423±0.0035 mole fraction
Mole fraction solubility ([1]; aqueous DES betaine + TEG 1:2, x*DES 0.3, 30°C): 0.1670±0.0021 mole fraction
Mole fraction solubility ([1]; aqueous DES betaine + TEG 1:2, x*DES 0.3, 35°C): 0.2005±0.0018 mole fraction
Mole fraction solubility ([1]; aqueous DES betaine + TEG 1:2, x*DES 0.3, 40°C): 0.2400±0.0050 mole fraction
Mole fraction solubility ([1]; aqueous DES betaine + TEG 1:2, x*DES 0.4, 25°C): 0.1950±0.0030 mole fraction
Mole fraction solubility ([1]; aqueous DES betaine + TEG 1:2, x*DES 0.4, 30°C): 0.2288±0.0034 mole fraction
Mole fraction solubility ([1]; aqueous DES betaine + TEG 1:2, x*DES 0.4, 35°C): 0.2772±0.0045 mole fraction
Mole fraction solubility ([1]; aqueous DES betaine + TEG 1:2, x*DES 0.4, 40°C): 0.3302±0.0064 mole fraction
Mole fraction solubility ([1]; aqueous DES betaine + TEG 1:2, x*DES 0.5, 25°C): 0.2459±0.0052 mole fraction
Mole fraction solubility ([1]; aqueous DES betaine + TEG 1:2, x*DES 0.5, 30°C): 0.2949±0.0045 mole fraction
Mole fraction solubility ([1]; aqueous DES betaine + TEG 1:2, x*DES 0.5, 35°C): 0.3502±0.0073 mole fraction
Mole fraction solubility ([1]; aqueous DES betaine + TEG 1:2, x*DES 0.5, 40°C): 0.4150±0.0056 mole fraction
Mole fraction solubility ([1]; aqueous DES betaine + TEG 1:2, x*DES 0.6, 25°C): 0.2941±0.0043 mole fraction
Mole fraction solubility ([1]; aqueous DES betaine + TEG 1:2, x*DES 0.6, 30°C): 0.3535±0.0052 mole fraction
Mole fraction solubility ([1]; aqueous DES betaine + TEG 1:2, x*DES 0.6, 35°C): 0.4213±0.0098 mole fraction
Mole fraction solubility ([1]; aqueous DES betaine + TEG 1:2, x*DES 0.6, 40°C): 0.5066±0.0066 mole fraction
Mole fraction solubility ([1]; aqueous DES betaine + TEG 1:2, x*DES 0.7, 25°C): 0.3409±0.0049 mole fraction
Mole fraction solubility ([1]; aqueous DES betaine + TEG 1:2, x*DES 0.7, 30°C): 0.4057±0.0067 mole fraction
Mole fraction solubility ([1]; aqueous DES betaine + TEG 1:2, x*DES 0.7, 35°C): 0.4779±0.0128 mole fraction
Mole fraction solubility ([1]; aqueous DES betaine + TEG 1:2, x*DES 0.7, 40°C): 0.5883±0.0063 mole fraction
Mole fraction solubility ([1]; aqueous DES betaine + TEG 1:2, x*DES 0.8, 25°C): 0.3800±0.0058 mole fraction
Mole fraction solubility ([1]; aqueous DES betaine + TEG 1:2, x*DES 0.8, 25°C, listed as IP): 0.380 mole fraction
Mole fraction solubility ([1]; aqueous DES betaine + TEG 1:2, x*DES 0.8, 30°C): 0.4493±0.0062 mole fraction
Mole fraction solubility ([1]; aqueous DES betaine + TEG 1:2, x*DES 0.8, 35°C): 0.5335±0.0056 mole fraction
Mole fraction solubility ([1]; aqueous DES betaine + TEG 1:2, x*DES 0.8, 40°C): 0.6375±0.0137 mole fraction
Mole fraction solubility ([1]; aqueous DES betaine + TEG 1:2, x*DES 0.9, 25°C): 0.3582±0.0053 mole fraction
Mole fraction solubility ([1]; aqueous DES betaine + TEG 1:2, x*DES 0.9, 30°C): 0.4279±0.0034 mole fraction
Mole fraction solubility ([1]; aqueous DES betaine + TEG 1:2, x*DES 0.9, 35°C): 0.5040±0.0073 mole fraction
Mole fraction solubility ([1]; aqueous DES betaine + TEG 1:2, x*DES 0.9, 40°C): 0.6012±0.0090 mole fraction
Mole fraction solubility ([1]; aqueous DES choline chloride + TEG 1:2, x*DES 0.1, 25°C): 0.0211±0.0003 mole fraction
Mole fraction solubility ([1]; aqueous DES choline chloride + TEG 1:2, x*DES 0.1, 30°C): 0.0257±0.0001 mole fraction
Mole fraction solubility ([1]; aqueous DES choline chloride + TEG 1:2, x*DES 0.1, 35°C): 0.0318±0.0006 mole fraction
Mole fraction solubility ([1]; aqueous DES choline chloride + TEG 1:2, x*DES 0.1, 40°C): 0.0386±0.0006 mole fraction
Mole fraction solubility ([1]; aqueous DES choline chloride + TEG 1:2, x*DES 0.2, 25°C): 0.0641±0.0005 mole fraction
Mole fraction solubility ([1]; aqueous DES choline chloride + TEG 1:2, x*DES 0.2, 30°C): 0.0783±0.0007 mole fraction
Mole fraction solubility ([1]; aqueous DES choline chloride + TEG 1:2, x*DES 0.2, 35°C): 0.0973±0.0012 mole fraction
Mole fraction solubility ([1]; aqueous DES choline chloride + TEG 1:2, x*DES 0.2, 40°C): 0.1210±0.0019 mole fraction
Mole fraction solubility ([1]; aqueous DES choline chloride + TEG 1:2, x*DES 0.3, 25°C): 0.1227±0.0023 mole fraction
Mole fraction solubility ([1]; aqueous DES choline chloride + TEG 1:2, x*DES 0.3, 30°C): 0.1520±0.0019 mole fraction
Mole fraction solubility ([1]; aqueous DES choline chloride + TEG 1:2, x*DES 0.3, 35°C): 0.1876±0.0024 mole fraction
Mole fraction solubility ([1]; aqueous DES choline chloride + TEG 1:2, x*DES 0.3, 40°C): 0.2338±0.0048 mole fraction
Mole fraction solubility ([1]; aqueous DES choline chloride + TEG 1:2, x*DES 0.4, 25°C): 0.1961±0.0021 mole fraction
Mole fraction solubility ([1]; aqueous DES choline chloride + TEG 1:2, x*DES 0.4, 30°C): 0.2424±0.0032 mole fraction
Mole fraction solubility ([1]; aqueous DES choline chloride + TEG 1:2, x*DES 0.4, 35°C): 0.2953±0.0062 mole fraction
Mole fraction solubility ([1]; aqueous DES choline chloride + TEG 1:2, x*DES 0.4, 40°C): 0.3695±0.005 mole fraction
Mole fraction solubility ([1]; aqueous DES choline chloride + TEG 1:2, x*DES 0.5, 25°C): 0.2548±0.0063 mole fraction
Mole fraction solubility ([1]; aqueous DES choline chloride + TEG 1:2, x*DES 0.5, 30°C): 0.3205±0.0083 mole fraction
Mole fraction solubility ([1]; aqueous DES choline chloride + TEG 1:2, x*DES 0.5, 35°C): 0.3919±0.0029 mole fraction
Mole fraction solubility ([1]; aqueous DES choline chloride + TEG 1:2, x*DES 0.5, 40°C): 0.4807±0.0064 mole fraction
Mole fraction solubility ([1]; aqueous DES choline chloride + TEG 1:2, x*DES 0.6, 25°C): 0.2992±0.0052 mole fraction
Mole fraction solubility ([1]; aqueous DES choline chloride + TEG 1:2, x*DES 0.6, 30°C): 0.3723±0.0052 mole fraction
Mole fraction solubility ([1]; aqueous DES choline chloride + TEG 1:2, x*DES 0.6, 35°C): 0.4667±0.0108 mole fraction
Mole fraction solubility ([1]; aqueous DES choline chloride + TEG 1:2, x*DES 0.6, 40°C): 0.5790±0.0052 mole fraction
Mole fraction solubility ([1]; aqueous DES choline chloride + TEG 1:2, x*DES 0.7, 25°C): 0.3351±0.0045 mole fraction
Mole fraction solubility ([1]; aqueous DES choline chloride + TEG 1:2, x*DES 0.7, 30°C): 0.4232±0.0081 mole fraction
Mole fraction solubility ([1]; aqueous DES choline chloride + TEG 1:2, x*DES 0.7, 35°C): 0.5264±0.0138 mole fraction
Mole fraction solubility ([1]; aqueous DES choline chloride + TEG 1:2, x*DES 0.7, 40°C): 0.6531±0.0080 mole fraction
Mole fraction solubility ([1]; aqueous DES choline chloride + TEG 1:2, x*DES 0.8, 25°C): 0.3673±0.0062 mole fraction
Mole fraction solubility ([1]; aqueous DES choline chloride + TEG 1:2, x*DES 0.8, 30°C): 0.4557±0.0051 mole fraction
Mole fraction solubility ([1]; aqueous DES choline chloride + TEG 1:2, x*DES 0.8, 35°C): 0.5712±0.0136 mole fraction
Mole fraction solubility ([1]; aqueous DES choline chloride + TEG 1:2, x*DES 0.8, 40°C): 0.7095±0.0082 mole fraction
Mole fraction solubility ([1]; aqueous DES choline chloride + TEG 1:2, x*DES 0.9, 25°C): 0.3754±0.0036 mole fraction
Mole fraction solubility ([1]; aqueous DES choline chloride + TEG 1:2, x*DES 0.9, 25°C, listed as IP): 0.375 mole fraction
Mole fraction solubility ([1]; aqueous DES choline chloride + TEG 1:2, x*DES 0.9, 30°C): 0.4619±0.0105 mole fraction
Mole fraction solubility ([1]; aqueous DES choline chloride + TEG 1:2, x*DES 0.9, 35°C): 0.5742±0.0073 mole fraction
Mole fraction solubility ([1]; aqueous DES choline chloride + TEG 1:2, x*DES 0.9, 40°C): 0.7138±0.0065 mole fraction
SMILES: CC(C)Cc1ccc(C(C)C(=O)O)cc1 (racemic) [ibuprofen, (RS)-2-(4-(2-methylpropyl)phenyl)propanoic acid]

From paper PMC11124057 (Molecules, 2024)
